Among the data in patent publication US11541055B2, “Inhibitors of human immunodeficiency virus replication” (ViiV Healthcare UK (No. 5) LIMITED, priority 2018, dated 2023) are EC50 and CC50 values, retold here.

The term EC50 denotes the concentration at which the effect is half-maximal. As usually defined, the CC50 is the concentration at which the toxic effect on the cells reaches its halfway point.

Structures are written as SMILES.

Series [1] concerns recombinant NL4-3 virus (Renilla luciferase) in MT-2 cells. Nature of the series: HIV cell culture assay (antiviral activity, luciferase readout). It counts as cell-based. The conditions noted are these: Renilla, NL43. The protocol:
HIV cell culture assay—MT-2 cells, 293T cells and the proviral DNA clone of NL4-3 virus were obtained from the NIH AIDS Research and Reference Reagent Program. MT-2 cells were propagated in RPMI 1640 media supplemented with 10% heat inactivated fetal bovine serum (FBS), […]. The 293T cells were propagated in DMEM media supplemented with 10% heat inactivated FBS, […] penicillin G and […] streptomycin. A recombinant NL40.3 proviral clone, in which a section of the nef gene was replaced with the Renilla luciferase gene, was used to make the reference virus used in these studies. The recombinant virus was prepared through transfection of the recombinant NL4-3 proviral clone into 293T cells using Transit-293 Transfection Reagent from Minis Bio LLC (Madison, Wis.). Supernatent was harvested after 2-3 days and the amount of virus present was titered in MT-2 cells using luciferase enzyme activity as a marker by measuring luciferase enzyme activity. Luciferase was quantitated using the EnduRen Live Cell Substrate from Promega (Madison, Wis.). Antiviral activities of compounds toward the recombinant virus were quantified by measuring luciferase activity in MT-2 cells infected for 4-5 days with the recombinant virus in the presence of serial dilutions of the compound.
The 50% effective concentration (EC50) was calculated by using the exponential form of the median effect equation where (Fa)=1/[1+(ED50/drug conc.)m] (Johnson V A, Byington R T. Infectivity Assay. In Techniques in HIV Research. ed. Aldovini A, Walker B D. 71-76. New York: Stockton Press. 1990). The 50% inhibitory concentration (EC50) was calculated by using the exponential form of the median effect equation where percent inhibition=1/[1+(EC50/drug concentration)m], where m is a parameter that reflects the slope of the concentration-response curve.

The nature of series [2]: Compound cytotoxicity, XTT-based colorimetric assay. The format is cell-based. The settings on record: human; uninfected MT2 cells, day 4, XTT. How it is done: Compound cytotoxicity and the corresponding CC50 values were determined using the same protocol as described in the antiviral assay except that uninfected cells were used. Cytotoxicity was assessed on day 4 in uninfected MT2 cells by using a XTT (2,3-bis[2-Methoxy-4-nitro-5-sulfophenyl]-2H-tetrazolium-5-carboxyanilide inner salt)-based colorimetric assay (Sigma-Aldrich, St Louis, Mo.).
(In general: Tetrazolium dyes change colour on reduction, which living cells bring about.)

For `Cc1ccc(F)c(-c2ccc3c(=O)n(-c4ccc(Cl)c5c(NS(=O)(=O)C6CC6)nn(CC(F)F)c45)c([C@H](Cc4cc(F)cc(F)c4)NC(=O)Cn4nc(C(F)F)c5c4C(F)(F)[C@@H]4C[C@H]54)nc3c2)n1` (atropisomer, axis not shown) [Example 96, N-[(1S)-1-{3-[4-chloro-3-cyclopropanesulfonamido-1-(2,2-difluoroethyl)-1H-indazol-7-yl]-7-(3-fluoro-6-methylpyridin-2-yl)-4-oxo-3,4-dihydroquinazolin-2-yl}-2-(3,5-difluorophenyl)ethyl]-2-[(2S,4R)-9-(difluoromethyl)-5,5-difluoro-7,8-diazatricyclo[4.3.0.0^2,^4]nona-1(6),8-dien-7-yl]acetamide], in series [1], the EC50 is 0.24 nM. The CC50 at 4 days in series [2] was above 500 nM.
Taken in the same sequence, the figures for `Cc1ncc(-c2ccc3c(=O)n(-c4ccc(Cl)c5c(NS(=O)(=O)C6CC6)nn(CC(F)F)c45)c([C@H](Cc4cc(F)cc(F)c4)NC(=O)Cn4nc(C(F)F)c5c4C(F)(F)[C@@H]4C[C@H]54)nc3c2)s1` (atropisomer, axis not shown) [Example 97, N-[(1S)-1-{3-[4-chloro-3-cyclopropanesulfonamido-1-(2,2-difluoroethyl)-1H-indazol-7-yl]-7-(2-methyl-1,3-thiazol-5-yl)-4-oxo-3,4-dihydroquinazolin-2-yl}-2-(3,5-difluorophenyl)ethyl]-2-[(2S,4R)-9-(difluoromethyl)-5,5-difluoro-7,8-diazatricyclo[4.3.0.0^2,^4]nona-1(6),8-dien-7-yl]acetamide] were 0.22 nM and above 500 nM.
Taken in the same sequence, the figures for `COc1cnc(-c2ccc3c(=O)n(-c4ccc(Cl)c5c(NS(=O)(=O)C6CC6)nn(CC(F)F)c45)c([C@H](Cc4cc(F)cc(F)c4)NC(=O)Cn4nc(C(F)F)c5c4C(F)(F)[C@@H]4C[C@H]54)nc3c2)nc1` (atropisomer, axis not shown) [Example 98, N-[(1S)-1-{3-[4-chloro-3-cyclopropanesulfonamido-1-(2,2-difluoroethyl)-1H-indazol-7-yl]-7-(5-methoxypyrimidin-2-y1)-4-oxo-3,4-dihydroquinazolin-2-yl}-2-(3,5-difluorophenyl)ethyl]-2-[(2S,4R)-9-(difluoromethyl)-5,5-difluoro-7,8-diazatricyclo[4.3.0.0^2,^4]nona-1(6),8-dien-7-yl]acetamide] were 0.16 nM and above 500 nM.
Turning to `COc1ncc(-c2ccc3c(=O)n(-c4ccc(Cl)c5c(NS(=O)(=O)C6CC6)nn(CC(F)F)c45)c([C@H](Cc4cc(F)cc(F)c4)NC(=O)Cn4nc(C(F)F)c5c4C(F)(F)[C@@H]4C[C@H]54)nc3c2)cn1` (atropisomer, axis not shown) [Example 99], the EC50 in series [1] came out at 0.089 nM. Moreover, the CC50 at 4 days in series [2] is above 500 nM.
Taken in the same sequence, the figures for `Cc1nccc(-c2ccc3c(=O)n(-c4ccc(Cl)c5c(NS(C)(=O)=O)nn(CC(F)(F)F)c45)c([C@H](Cc4cc(F)cc(F)c4)NC(=O)Cn4nc(C(F)F)c5c4C(F)(F)[C@@H]4C[C@H]54)nc3c2)n1` (atropisomer, axis not shown) [Example 100, N-[(1S)-1-{3-[4-chloro-3-methanesulfonamido-1-(2,2,2-trifluoroethyl)-1H-indazol-7-yl]-7-(2-methylpyrimidin-4-yl)-4-oxo-3,4-dihydroquinazolin-2-yl}-2-(3,5-difluorophenyl)ethyl]-2-[(2S,4R)-9-(difluoromethyl)-5,5-difluoro-7,8-diazatricyclo[4.3.0.0^2,^4]nona-1(6),8-dien-7-yl]acetamide] were 0.042 nM and above 500 nM.
Taken in the same sequence, the figures for `Cc1cc(C)nc(-c2ccc3c(=O)n(-c4ccc(Cl)c5c(NS(C)(=O)=O)nn(CC(F)(F)F)c45)c([C@H](Cc4cc(F)cc(F)c4)NC(=O)Cn4nc(C(F)F)c5c4C(F)(F)[C@@H]4C[C@H]54)nc3c2)c1` (atropisomer, axis not shown) [Example 101, N-[(1S)-1-{3-[4-chloro-3-methanesulfonamido-1-(2,2,2-trifluoroethyl)-1H-indazol-7-yl]-7-(4,6-dimethylpyridin-2-yl)-4-oxo-3,4-dihydroquinazolin-2-yl}-2-(3,5-difluorophenyl)ethyl]-2-[(2S,4R)-9-(difluoromethyl)-5,5-difluoro-7,8-diazatricyclo[4.3.0.0^2,^4]nona-1(6),8-dien-7-yl]acetamide] were 0.21 nM and above 500 nM.
Regarding `CS(=O)(=O)Nc1nn(CC(F)(F)F)c2c(-n3c([C@H](Cc4cc(F)cc(F)c4)NC(=O)Cn4nc(C(F)F)c5c4C(F)(F)[C@@H]4C[C@H]54)nc4cc(-c5nccc(C(F)(F)F)n5)ccc4c3=O)ccc(Cl)c12` (atropisomer, axis not shown) [Example 102], the EC50 in series [1] is 0.13 nM. This compound also yielded a CC50 at 4 days in series [2] above 500 nM.
For the compound `Cc1cc(-c2ccc3c(=O)n(-c4ccc(Cl)c5c(NS(C)(=O)=O)nn(CC(F)(F)F)c45)c([C@H](Cc4cc(F)cc(F)c4)NC(=O)Cn4nc(C(F)F)c5c4C(F)(F)[C@@H]4C[C@H]54)nc3c2)nc(C)n1` (atropisomer, axis not shown) [Example 103, N-[(1S)-1-{3-[4-chloro-3-methanesulfonamido-1-(2,2,2-trifluoroethyl)-1H-indazol-7-yl]-7-(2,6-dimethylpyrimidin-4-yl)-4-oxo-3,4-dihydroquinazolin-2-yl}-2-(3,5-difluorophenyl)ethyl]-2-[(2S,4R)-9-(difluoromethyl)-5,5-difluoro-7,8-diazatricyclo[4.3.0.0^2,^4]nona-1(6),8-dien-7-yl]acetamide], in series [1], the EC50 came to 0.059 nM. In addition, the CC50 at 4 days in series [2] was above 500 nM.
Taken in the same sequence, the figures for `CS(=O)(=O)Nc1nn(CC(F)(F)F)c2c(-n3c([C@H](Cc4cc(F)cc(F)c4)NC(=O)Cn4nc(C(F)F)c5c4C(F)(F)[C@@H]4C[C@H]54)nc4cc(-c5nccc(C(F)F)n5)ccc4c3=O)ccc(Cl)c12` (atropisomer, axis not shown) [Example 104, N-[(1S)-1-{3-[4-chloro-3-methanesulfonamido-1-(2,2,2-trifluoroethyl)-1H-indazol-7-yl]-7-[4-(difluoromethyl)pyrimidin-2-yl]-4-oxo-3,4-dihydroquinazolin-2-yl}-2-(3,5-difluorophenyl)ethyl]-2-[(2S,4R)-9-(difluoromethyl)-5,5-difluoro-7,8-diazatricyclo[4.3.0.0^2,^4]nona-1(6),8-dien-7-yl]acetamide] were 0.063 nM and above 500 nM.
Taken in the same sequence, the figures for `Cc1ccc(-c2ccc3c(=O)n(-c4ccc(Cl)c5c(NS(C)(=O)=O)nn(CC(F)(F)F)c45)c([C@H](Cc4cc(F)cc(F)c4)NC(=O)Cn4nc(C(F)F)c5c4C(F)(F)[C@@H]4C[C@H]54)nc3c2)nn1` (atropisomer, axis not shown) [Example 106, N-[(1S)-1-{3-[4-chloro-3-methanesulfonamido-1-(2,2,2-trifluoroethyl)-1H-indazol-7-yl]-7-(6-methylpyridazin-3-yl)-4-oxo-3,4-dihydroquinazolin-2-yl}-2-(3,5-difluorophenyl)ethyl]-2-[(2S,4R)-9-(difluoromethyl)-5,5-difluoro-7,8-diazatricyclo[4.3.0.0^2,^4]nona-1(6),8-dien-7-yl]acetamide] were 0.043 nM and above 500 nM.
Taken in the same sequence, the figures for `CS(=O)(=O)Nc1nn(CC(F)(F)F)c2c(-n3c([C@H](Cc4cc(F)cc(F)c4)NC(=O)Cn4nc(C(F)F)c5c4C(F)(F)[C@@H]4C[C@H]54)nc4cc(-c5cccnn5)ccc4c3=O)ccc(Cl)c12` (atropisomer, axis not shown) [Example 107, N-[(1S)-1-{3-[4-chloro-3-methanesulfonamido-1-(2,2,2-trifluoroethyl)-1H-indazol-7-yl]-4-oxo-7-(pyridazin-3-yl)-3,4-dihydroquinazolin-2-yl}-2-(3,5-difluoropheny)ethyl]-2-[(2S,4R)-9-(difluoromethyl)-5,5-difluoro-7,8-diazatricyclo[4.3.0.0^2,^4]nona-1(6),8-dien-7-yl]acetamide] were 0.048 nM and above 500 nM.
Turning to `CC(C)c1nccc(-c2ccc3c(=O)n(-c4ccc(Cl)c5c(NS(C)(=O)=O)nn(CC(F)(F)F)c45)c([C@H](Cc4cc(F)cc(F)c4)NC(=O)Cn4nc(C(F)F)c5c4C(F)(F)[C@@H]4C[C@H]54)nc3c2)n1` (atropisomer, axis not shown) [Example 108], the EC50 in series [1] came to 0.12 nM. The same compound gave a CC50 at 4 days in series [2] above 500 nM.
